Where two headings read alike, the source gives them in different places.
Assays:
CD rats = experiment: pulmonary evaluation in rats; assay type: in vivo, rat; settings: doses up to and including 30 mg/kg, single oral dose
Protocol: One additional group of eight animals/sex served as the control and received vehicle (sesame oil).
Observations for mortality, morbidity, injury, and availability of food and water were conducted twice daily for all animals. Clinical observations were conducted prior to dosing, approximately 4 hours post-dose, and following completion of the 8-hour pulmonary monitoring period. […] Pulmonary function (respiratory rate, tidal volume, and minute volume) was monitored for at least 1 hour prior to dosing to establish a baseline and for at least 8 hours post-dose.

NQO1 [1] = experiment: NQO1 activity in mouse tissues, 25 mg/kg PO QD×3; assay type: in vivo
Nrf2 target genes [2] = experiment: Nrf2 target gene expression in BEAS-2B bronchial epithelial cells; assay type: cell-based, human; settings: 18 hours
[3] = test system: TNFα-induced NF-κB activation; experiment: TNFα-induced NF-κB luciferase reporter, A549/NF-κB-Luc cells; assay type: cell-based; settings: Homo sapiens
Text: NF-κB is a transcription factor that plays a central role in the regulation of many immune and inflammatory responses.

RAW264.7 cells = experiment: WST-1 cell viability, RAW264.7; assay type: cell-based; settings: Mus musculus
Protocol: (§1) Inhibition of IFNγ-induced NO production by AIMs is Nrf2-dependent (Dinkova-Kostova, 2005). […] Nitrite (NO2^−) levels in the media were measured as a surrogate for nitric oxide using the Griess reagent assay. Cell viability was assessed using the WST-1 assay. […] 63170, 63171, 63179, and 63189 are compounds of the formulas: […]

[4] = metabolism in monkey liver microsomes; settings: 60-minute incubation, NADPH and UGT
CYP3A4 = experiment: CYP450 induction in cultured human hepatocytes: CYP3A4; assay type: in vitro ADME; settings: up to 3 μM
[5] = test system: cigarette smoke-induced COPD; experiment: cigarette smoke-induced COPD in mice; assay type: in vivo, mouse
Protocol: At the end of the study, lung tissue and BALF were collected for analysis of inflammatory infiltrates and cytokines. […] An AIM analog (63355) was tested in the same study for comparison. 63355 is a compound of the formula: […]

[6] = test system: radiation-induced oral mucositis; experiment: radiation-induced oral mucositis in hamsters
[7] = test system: IFNγ-induced NO production; experiment: IFNγ-induced NO production in RAW264.7 macrophages (Griess reagent); assay type: cell-based; settings: Mus musculus
Protocol: as §1

[8] = metabolism in rodent liver microsomes; assay type: in vitro ADME, mice, rats; settings: 60-minute incubation, NADPH and UGT
[9] = test system: Nrf2 protein expression in SK-N-SH cells; experiment: in-cell western NQO1 assay, SK-N-SH cells; assay type: cell-based; settings: Homo sapiens, 72 h, 3 days incubation, read-out: EC50 for induction of Nrf2 protein expression in SK-N-SH cells
Protocol: HMOX1 protein was not detected in untreated or RTA 408-treated SH-SY5Y cells. […] The same amount of 63170 (54.6 nM) was required.
The EC50 was measured using an in-cell western NQO1 assay where the cells were incubated with the compound under evaluation for 3 days. After incubation with the compound of interest, the cells were reacted with mouse NQO1 antibody and then the next day the cells were reacted with IRDye-800CW-anti-mouse IgG antibody. The target signals were visualized and then analyzed.

Sprague Dawley rats = experiment: 14-day rat toxicity study (tissue distribution, Nrf2 targets)
Nrf2 target genes [10] = experiment: Nrf2 target gene expression in HFL1 lung fibroblasts (quantitative PCR); assay type: cell-based, human; settings: 18 hours
NQO1 and HMOX1 protein = experiment: Nrf2 target protein levels in BV2 cells; assay type: cell-based, mouse; settings: concentrations up to 125 nM
[11] = topical administration pharmacokinetics in rats; assay type: in vivo, rat; settings: 0.01 to 3% in sesame oil
Text: The topical administration was formulated as a suspension in sesame oil.

cynomolgus monkeys = experiment: cardiovascular evaluation in conscious cynomolgus monkeys (telemetry); assay type: in vivo, monkey
Protocol: Animals were instrumented with telemetry transmitters for measurement of body temperature, blood pressure, heart rate, and electrocardiogram (ECG) evaluation. Body temperature, systolic, diastolic, and mean arterial blood pressure, heart rate, and ECG parameters (QRS duration and RR, PR, and QT intervals) were monitored continuously from at least 2 hours pre-dose until at least 24 hours post-dose. ECG tracings were printed at designated time points from the cardiovascular monitoring data and were qualitatively evaluated by a board-certified veterinary cardiologist.
Observations for morbidity, mortality, injury, and availability of food and water were conducted at least twice daily for all animals. Clinical observations were conducted pre-dose, approximately 4 hours post-dose, and following completion of the cardiovascular monitoring period. Body weights were measured and recorded on the day prior to each treatment administration.

ocular inflammation = ocular inflammation after paracentesis in rabbits; assay type: in vivo, rabbit; settings: 0.01% RTA 408 in the formulation
Protocol: Each rabbit was given three instillations within 60 minutes before induction of paracentesis and two instillations within 30 minutes after induction of paracentesis. Each instillation was 50 μL and given in both eyes. Aqueous humor for 6 animals per time-point was collected 30 minutes and again 2 hours after induction of paracentesis. The amount of inflammation was determined by protein concentration in the aqueous humor.

ovalbumin-induced asthma = ovalbumin-induced asthma in mice; assay type: in vivo, mouse
Text: Mice were sensitized with an IP injection of ovalbumin and aluminum hydroxide on Day 0 and Day 14 and challenged intranasally with ovalbumin in saline on Days 14, 25, 26, and 27. […] An increase in the number of T cells and B cells was also observed in the vehicle-treated mice.

NQO1 [12] = experiment: NQO1 enzymatic activity in RAW264.7 cells; assay type: cell-based, mouse; settings: 24 hours
Protocol: Consistent with induction of Nrf2 target genes and corresponding protein products, treatment of RAW264.7 mouse macrophage cells for 24 hours increased NQO1 enzymatic activity in a dose-dependent manner, with increases evident at 7.8 nM (FIG. 6).

[13] = test system: LPS-induced pulmonary inflammation
[14] = 10 mg/kg, four hours after final dose, Day 14

## CC1(C)CC[C@]2(NC(=O)C(C)(F)F)CC[C@]3(C)[C@H](C(=O)C=C4[C@@]5(C)C=C(C#N)C(=O)C(C)(C)[C@@H]5CC[C@]43C)[C@@H]2C1 [RTA 408, N-((4aS,6aR,6bS,8aR,12aS,14aR,14bS)-11-cyano-2,2,6a,6b,9,9,12a-heptamethyl-10,14-dioxo-1,2,3,4,4a,5,6,6a,6b,7,8,8a,9,10,12a,14,14a,14b-octadecahydropicen-4a-yl)-2,2-difluoropropanamide]
CD rats
  basic pulmonary endpoints: did not produce any adverse effects
NQO1 [1]
  activation of NQO1 in multiple tissues: Meaningful activation of NQO1
Nrf2 target genes [2]
  expression of Nrf2 target genes: dose-dependent increase of all Nrf2 target genes evaluated
[3]
  IC50: 627 nM
RAW264.7 cells
  IC50: 125 nM
[4]
  parent molecule remaining: < 10%
CYP3A4
  induction of enzyme activity: not an inducer
[5]; 30 mg/kg
  lung Txnrd enzyme activity: induced
[5]; doses as low as 3 mg/kg, two weeks
  pro-inflammatory cytokines including KC and TNFα: significant suppression of pro-inflammatory cytokines
[5]; mouse, in vivo
  lung Gsr enzyme activity: not altered
  lung Gst enzyme activity: decreased with treatment
  lung NQO1 enzyme activity decreased by cigarette smoke: rescued this loss
[6]; 100 mg/kg
  hamsters euthanized on Day 2 due to weight loss in excess of 20%: two out of eight
[6]; 30 and 100 mg/kg
  duration of ulcerative mucositis: significant reduction
[6]; hamster, in vivo
  percentage of animals with mucositis scores ≥3: dose-dependent decrease
[7]; 2 h pre-treatment, 20 ng/mL IFNγ 24 h, read-out: IC50, suppression of IFNγ-induced NO production
  IC50: 3.8 ± 1.2 nM
[7]; Table 15, read-out: NO IC50 (nM), RAW264.7
  IC50: 4 ± 1 nM
[8]
  parent molecule remaining: > 65%
[9]
  EC50: 56.4 nM
Sprague Dawley rats; [14]
  brain exposure over in vitro IC50 for NO inhibition: 240 fold
  lung exposure over in vitro IC50 for NO inhibition: 294 fold
Sprague Dawley rats; 100 mg/kg, tissues collected on Day 6
  toxicity finding in the high dose group: observed toxicities
Sprague Dawley rats; PO QD×14
  liver NQO1 and GST enzyme activities: induced dose-dependently
Nrf2 target genes [10]
  concentration at which induction of NQO1, HMOX1, GCLM, TXNRD1 is evident: ≤ 15.6 nM
NQO1 and HMOX1 protein
  NQO1 and HMOX1 protein levels: increased NQO1 and HMOX1 protein levels
[11]
  plasma concentrations after topical administration: lower plasma concentrations relative to similar oral dosing
Cynomolgus monkeys; 100 mg/kg oral, not considered related to treatment
  increase in the corrected QT interval (average): 1.6%
Cynomolgus monkeys; doses up to and including 100 mg/kg oral
  effects on cardiovascular function: no effects on cardiovascular function
Ocular inflammation
  aqueous humor protein concentration: reduction in aqueous humor protein similar to that of the highest concentration of any of the other reference compounds
ovalbumin-induced asthma; 30 mg/kg
  B cells within the airways: significantly reduced the number and percentage of B cells
ovalbumin-induced asthma; 3 and 30 mg/kg
  macrophages detected in the airways: significantly reduced the number of macrophages
NQO1 [12]
  concentration at which increase in NQO1 enzymatic activity is evident: 7.8 nM
[13]; 10 mg/kg
  TNFα in BALF: Significant reductions
[13]; 30 mg/kg
  IL-12p40, TNFα, and RANTES in BALF: significant reductions
[13]; 10 and 30 mg/kg
  lung NQO1 enzyme activity and total GSH: significant induction of NQO1 enzyme activity and increases in total GSH
